Test results taken from patent US12115161B2, “Prophylactic and/or therapeutic agent for inflammatory diseases which contains pyrrolopyrimidine compound as active ingredient” (KEIO UNIVERSITY, priority 2018, dated 2024).

Legend:
[1] = test system: peripheral blood mononuclear cells (PBMC); experiment: IgG production by B cell-stimulation culture using peripheral blood mononuclear cells (Example 5); assay type: cell-based, human
Description: Peripheral blood mononuclear cells were isolated from normal healthy human peripheral blood by density gradient centrifugation using Ficoll. In the presence of 5 μg/mL anti-human IgM antibody, 1 μg/mL anti-human CD40 antibody, 30 ng/mL recombinant human IL-21, 30 ng/mL recombinant human BAFF, and Compound A (0.4 μM, 2 μM, and 10 μM), 2×10^5 peripheral blood mononuclear cells were cultured using a 10% FBS/RPMI 1640 culture medium in a 5% CO2 environment at 37° C. for seven days. The cells were cultured in 96-well round-bottom culture plates in a scale of 200 μL per well. Seven days later, the supernatant was removed and the culture supernatant was collected to determine the IgG content in the culture supernatant by ELISA. As controls, experiments in the case of not adding Compound A and the case of adding neither Compound A nor BAFF were also performed. Moreover, for comparison with the effects of Compound A, experiments using BIK-13 instead of Compound A were also performed.

NZB/WF1 mice [2] = experiment: Urine protein in NZB/WF1 mice (Example 8); assay type: in vivo
Description: Present Example was performed simultaneously with Example 7 using NZB/WF1 mice. Except for the following exceptions, present Example was performed by the same materials and method as Example 7 above.
The urine was collected over time (0 w, 4 w, 7 w, 12 w, 16 w, and 18 w) to evaluate the protein content […] in the urine using urine protein test strips. It is known that SLE patients are prone to develop lupus nephritis and a higher concentration of protein is contained in the urine of incident patients than the urine of normal healthy individuals.
The level of the protein content in the mouse urine was numerically expressed using Albustix (Ames urine protein test strips, produced by Siemens Healthcare K.K.) as urine protein test strips based on the following criteria. • negative: 0 • ±: 0.5 • +: 1 • 2+: 2 • 3+: 3

NZB/WF1 mice [3] = experiment: Anti-dsDNA antibody titer in blood of NZB/WF1 mice (Example 7); assay type: in vivo
Description: NZB/WF1 mice (purchased from Japan SLC, Inc.) were used as disease model (may also be referred to as systemic lupus erythematosus (SLE) model) mice producing anti-dsDNA antibodies with age and spontaneously developing glomerulonephritis. Except for the following exceptions, present Example was performed by the same materials and method as Example 6 above.
Experiments were performed as follows: • Group 1: administered a physiological saline solution only (saline); • Group 2: administered 0.2 mg/kg of Compound A; • Group 3: administered 1 mg/kg of Compound A.
NZB/WF1 mice (female) of 20 weeks old were classified into the above three groups (five individuals per group) and predetermined administration was initiated (0 w) on the individuals in each group.
The administration was performed five times a week for 20 weeks by intravenous injection.

[4] = test system: human monocytic cell line THP-1; experiment: IL-6 production inhibitory effect of BAFF in IFNγ-precultured THP-1 cells (Example 2); assay type: cell-based
Description: In 24-well plates (manufactured by Corning Inc.) in a RPMI-1640 culture medium (produced by ATCC) containing 10% fetal bovine serum (produced by JRH Biosciences), 5×10^5 cells of human monocytic leukemia cell line THP-1 (obtained from a bioresource bank, Japanese Collection of Research Bioresource) were seeded per well. IFNγ (interferon γ, produced by BD Pharmingen) was added to a final concentration of 200 ng/mL and cultured in a 5% CO2 environment at 37° C. After four days of culture, the culture broth in each well was removed and the cells were washed twice with the culture medium, followed by addition of the culture medium containing a final concentration of 2 μg/mL of recombinant human soluble BAFF (produced by Chemicon), and respective test compounds were added to a final concentration of 20 μM or 2 μM to continue the culture in the same conditions. After three days of culture, the culture supernatant was collected to determine the IL-6 content in the supernatant by ELISA. For ELISA, mouse anti-human IL-6 antibody (produced by BD Pharmingen), biotin-labeled anti-human IL-6 antibody (produced by BD Pharmingen), and HRP-labeled streptavidin (produced by BD Pharmingen) were used. The test compound groups were used by purchasing from Asinex. In the test system, Compound 27 (BIK-13) in PTL 1 was used as a positive control (compound with inhibitory action on IL-6 production by monocytic cells). BIK-13 was the same as the compound of ADM 12880656 by Asinex Japan Inc.
In the presence of 200 ng/mL recombinant human IFNγ (same as Example 1) (entire culture scale of 24-well culture plates at 2 mL/well), 5×10^5 cells of human monocytic cell line THP-1 (same as Example 1) were cultured using a 10% FBS/RPMI 1640 culture medium in a 5% CO2 environment at 37° C. for four days (96 hours). Four days later, an operation of removing the supernatant, adding a new medium, leaving it still in an incubator, and removing the supernatant was repeated twice. After removing the supernatant, recombinant human BAFF (2 μg/mL) was dissolved together with Compound A (ADM 12880492, Asinex Japan Inc.) or Compound B (ADM 12880696, Asinex Japan Inc.) in a medium and added to the culture wells to be cultured for three days. Three days later, the culture supernatant was collected to determine the IL-6 content in the culture supernatant by IL-6 specific ELISA. As a control, instead of Compound A or Compound B, BIK-13 was used.

MRL/lpr mice = experiment: Tissue lesion (lymphocytic infiltration, HE staining) in MRL/lpr mice (Example 9); assay type: in vivo; conditions: 0.04, 0.2, 1 mg/kg for 16 weeks
Description: Present Example was performed simultaneously with Example 6 using MRL/lpr mice. Except for the following exceptions, present Example was performed by the same materials and method as Example 6 above.
After administration in the 16th week, 25-week-old mice were dissected and tissues (lacrimal glands, submandibular glands, and kidneys) were removed. After the removed tissues were rapidly frozen and embedded using O.C.T. compound (Sakura Finetek Japan Co., Ltd.), the frozen tissues were thin sectioned with a cryostat (LEICA CM 1920) and applied on glass slides. After the sections on the glass slides were dried, the tissues were stained by hematoxylin-eosin staining to be observed with a microscope. The hematoxylin-eosin staining was performed in the following procedure: • 1) fixation and washing with an ethanol-formalin-acetic acid fixative; • 2) adding New Hematoxylin solution Type G (Muto Pure Chemicals Co., Ltd.), followed by washing; • 3) adding New Eosin solution Type A (Muto Pure Chemicals Co., Ltd.); • 4) adding 80% ethanol; • 5) adding xylene; and • 6) mounted with Marinol (Muto Pure Chemicals Co., Ltd.) for observation.

For `Cc1c(C)n(Cc2ccccc2)c2ncnc(OC3CCN(CC(=O)NCC4CC4)CC3)c12` [Compound A, 2-[4-{(7-benzyl-5,6-dimethyl-7H-pyrrolo[2,3-d]pyrimidin-4-yl)oxy}piperidin-1-yl]-N(cyclopropylmethyl)acetamide], the “IgG antibody production inhibitory effect compared with the control” value ([1]; 0.4 μM, 2 μM and 10 μM, anti-IgM, anti-CD40, IL-21 and BAFF stimuli, 7 days) was “significant (respectively, p<0.05, p<0.01, and p<0.001) IgG antibody production inhibitory effects”, the “cancellation of the IgG antibody production enhancement by BAFF” value ([1]; 10 μM, compared with adding none) was “almost completely cancelled” and the “inhibitory effect on IgG antibody production, times stronger than BIK-13” value ([1]; PBMC system of Example 5) was “approximately 25 times”. For the same compound, the “protein content in the urine compared with saline” value (NZB/WF1 mice [2]; 0.2 and 1 mg/kg, 12 w or later, urine protein test strips) was “tendency of decrease”, the “inhibitory effect on the protein content in the urine compared with saline” value (NZB/WF1 mice [2]; 12th week (1 mg/kg) and 18th week (0.2 mg/kg and 1 mg/kg)) was “significant (respectively, p<0.05) inhibitory effects” and the “anti-dsDNA antibody titer inhibitory effect compared with saline” value (NZB/WF1 mice [3]; 1 mg/kg, 12th and 16th weeks) was “significant (respectively, p<0.05) anti-dsDNA antibody titer inhibitory effects”. For the same compound, the “anti-dsDNA antibody titers in the blood compared with saline” value (NZB/WF1 mice [3]; 0.2 and 1 mg/kg, intravenous injection five times a week, 12 w or later) was “tendency of decrease”, the “IL-6 production inhibitory effect compared with the control” value ([4]; 0.04 μM, 0.2 μM and 1 μM together with 2 μg/mL human BAFF, 3 days, ELISA) was “significant (p<0.001) IL-6 production inhibitory effects” and the “relative amount of IL-6 production” value ([4]; 0.04 μM, control (BAFF only) = 100%) was 25±1.42%. The “IL-6 production inhibitory effect, times stronger than BIK-13” value ([4]; THP-1 system of Example 2) was “at least 750 times”, the “lymphocytic infiltration areas in kidney tissues compared with saline” value (MRL/lpr mice) was “reduced” and the “lymphocytic infiltration areas in lacrimal gland tissues compared with saline” value (MRL/lpr mice) was “clearly reduced”. For the same compound, the “lymphocytic infiltration areas in submandibular gland tissues compared with saline” value (MRL/lpr mice) was “reduced”.
